Laboratory results reported in ChEMBL document CHEMBL5154755, “Discovery of Novel Indazoles as Potent and Selective PI3Kδ Inhibitors with High Efficacy for Treatment of Hepatocellular Carcinoma” (J Med Chem, 2022).

Legend:
[1] = biological target: T1, Phosphatidylinositol 4,5-bisphosphate 3-kinase catalytic subunit delta isoform (Homo sapiens, UniProt O00329); test: Inhibition of PI3Kdelta (unknown origin) using PIP2 as substrate incubated for 1 hr in presence of ATP by ADP-Glo assay
T1 sequence (O00329 whole entry): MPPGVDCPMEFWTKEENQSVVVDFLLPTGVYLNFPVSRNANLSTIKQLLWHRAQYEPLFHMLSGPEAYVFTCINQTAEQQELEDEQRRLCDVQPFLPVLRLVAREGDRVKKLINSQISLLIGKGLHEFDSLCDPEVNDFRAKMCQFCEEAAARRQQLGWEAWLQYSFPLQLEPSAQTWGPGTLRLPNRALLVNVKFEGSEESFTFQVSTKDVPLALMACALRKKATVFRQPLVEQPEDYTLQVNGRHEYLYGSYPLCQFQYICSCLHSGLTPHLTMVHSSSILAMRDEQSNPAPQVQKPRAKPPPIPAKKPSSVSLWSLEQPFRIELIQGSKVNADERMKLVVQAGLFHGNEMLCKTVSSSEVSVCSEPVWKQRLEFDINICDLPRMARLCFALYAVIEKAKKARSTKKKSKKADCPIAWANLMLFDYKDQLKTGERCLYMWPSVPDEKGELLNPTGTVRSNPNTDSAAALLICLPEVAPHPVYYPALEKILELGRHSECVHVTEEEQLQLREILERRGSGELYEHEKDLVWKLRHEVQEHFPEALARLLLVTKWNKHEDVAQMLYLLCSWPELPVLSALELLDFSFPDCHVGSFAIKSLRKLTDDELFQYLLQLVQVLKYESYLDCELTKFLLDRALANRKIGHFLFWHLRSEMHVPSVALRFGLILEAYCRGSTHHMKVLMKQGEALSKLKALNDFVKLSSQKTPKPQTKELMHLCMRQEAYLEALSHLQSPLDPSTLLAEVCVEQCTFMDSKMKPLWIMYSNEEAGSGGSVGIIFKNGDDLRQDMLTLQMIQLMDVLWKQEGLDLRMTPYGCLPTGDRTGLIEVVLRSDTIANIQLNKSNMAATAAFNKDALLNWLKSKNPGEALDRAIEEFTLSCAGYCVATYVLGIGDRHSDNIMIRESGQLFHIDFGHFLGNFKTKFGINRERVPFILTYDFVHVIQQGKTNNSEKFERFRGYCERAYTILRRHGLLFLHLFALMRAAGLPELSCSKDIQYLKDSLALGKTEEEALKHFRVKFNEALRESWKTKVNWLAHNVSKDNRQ

Bel-7402 [2] = test: Antiproliferative activity against human Bel-7402 cells assessed as inhibition of cell growth incubated for 72 hrs by SRB assay; type: functional, cell-based; conditions: Bel-7402, 72 h
Hep 3B2 [3] = test: Antiproliferative activity against human Hep3B cells assessed as inhibition of cell growth incubated for 72 hrs by SRB assay; type: functional, cell-based
Bel-7402 [4] = test: cells; conditions: Homo sapiens, Bel-7402, 72 h, read-out: INH
HepG2 [5] = test: cells; conditions: Homo sapiens, HepG2, 72 h, read-out: INH
Hep 3B2 [6] = test: cells; conditions: Homo sapiens, Hep3B, 72 h, read-out: INH
HepG2 [7] = test: cells; conditions: Homo sapiens, HepG2, 72 h
Description: Antiproliferative activity against human HepG2 cells assessed as inhibition of cell growth incubated for 72 hrs by SRB assay

[8] = biological target: Phosphatidylinositol 4,5-bisphosphate 3-kinase catalytic subunit alpha isoform (Homo sapiens, UniProt P42336); test: Inhibition of PI3Kalpha (unknown origin) using PIP2 as substrate incubated for 1 hr in presence of ATP by ADP-Glo assay
[9] = biological target: Phosphatidylinositol 4,5-bisphosphate 3-kinase catalytic subunit beta isoform (Homo sapiens, UniProt P42338); test: Inhibition of PI3Kbeta (unknown origin) using PIP2 as substrate incubated for 1 hr in presence of ATP by ADP-Glo assay
[10] = biological target: Phosphatidylinositol 4,5-bisphosphate 3-kinase catalytic subunit gamma isoform (Homo sapiens, UniProt P48736); test: Inhibition of PI3Kgamma (unknown origin) using PIP2 as substrate incubated for 1 hr in presence of ATP by ADP-Glo assay
Phosphatidylinositol 4,5-bisphosphate 3-kinase catalytic subunit gamma isoform, sequence (P48736 whole entry, canonical isoform): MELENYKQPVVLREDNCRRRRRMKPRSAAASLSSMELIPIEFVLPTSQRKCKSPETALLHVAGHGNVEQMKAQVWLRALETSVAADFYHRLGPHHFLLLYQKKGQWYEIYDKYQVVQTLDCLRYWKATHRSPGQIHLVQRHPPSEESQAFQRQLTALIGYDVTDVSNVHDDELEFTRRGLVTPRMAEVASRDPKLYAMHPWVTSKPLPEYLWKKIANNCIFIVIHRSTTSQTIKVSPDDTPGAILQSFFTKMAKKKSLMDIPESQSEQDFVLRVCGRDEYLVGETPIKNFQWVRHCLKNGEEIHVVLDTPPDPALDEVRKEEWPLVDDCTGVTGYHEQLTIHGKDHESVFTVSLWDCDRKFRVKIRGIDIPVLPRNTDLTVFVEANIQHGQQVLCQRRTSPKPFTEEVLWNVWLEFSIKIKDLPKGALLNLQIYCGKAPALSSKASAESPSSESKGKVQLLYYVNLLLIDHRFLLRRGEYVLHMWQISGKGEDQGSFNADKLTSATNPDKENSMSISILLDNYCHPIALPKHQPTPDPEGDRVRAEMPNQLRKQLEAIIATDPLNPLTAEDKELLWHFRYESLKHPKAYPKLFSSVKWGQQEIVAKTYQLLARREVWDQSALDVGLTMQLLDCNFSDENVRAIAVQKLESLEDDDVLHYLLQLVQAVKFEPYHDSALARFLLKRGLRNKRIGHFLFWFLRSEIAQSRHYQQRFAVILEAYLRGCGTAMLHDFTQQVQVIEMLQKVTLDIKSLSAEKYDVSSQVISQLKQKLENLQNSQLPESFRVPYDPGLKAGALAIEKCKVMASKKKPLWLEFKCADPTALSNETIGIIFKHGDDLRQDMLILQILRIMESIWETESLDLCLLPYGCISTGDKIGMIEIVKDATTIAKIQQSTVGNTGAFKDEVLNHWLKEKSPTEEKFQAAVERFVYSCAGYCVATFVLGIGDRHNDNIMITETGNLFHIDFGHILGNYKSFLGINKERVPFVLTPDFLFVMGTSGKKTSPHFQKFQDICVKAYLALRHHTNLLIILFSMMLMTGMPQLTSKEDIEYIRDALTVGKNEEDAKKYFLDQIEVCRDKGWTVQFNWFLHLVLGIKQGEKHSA

Phosphatidylinositol 4,5-bisphosphate 3-kinase catalytic subunit beta isoform, sequence (P42338 whole entry, canonical isoform): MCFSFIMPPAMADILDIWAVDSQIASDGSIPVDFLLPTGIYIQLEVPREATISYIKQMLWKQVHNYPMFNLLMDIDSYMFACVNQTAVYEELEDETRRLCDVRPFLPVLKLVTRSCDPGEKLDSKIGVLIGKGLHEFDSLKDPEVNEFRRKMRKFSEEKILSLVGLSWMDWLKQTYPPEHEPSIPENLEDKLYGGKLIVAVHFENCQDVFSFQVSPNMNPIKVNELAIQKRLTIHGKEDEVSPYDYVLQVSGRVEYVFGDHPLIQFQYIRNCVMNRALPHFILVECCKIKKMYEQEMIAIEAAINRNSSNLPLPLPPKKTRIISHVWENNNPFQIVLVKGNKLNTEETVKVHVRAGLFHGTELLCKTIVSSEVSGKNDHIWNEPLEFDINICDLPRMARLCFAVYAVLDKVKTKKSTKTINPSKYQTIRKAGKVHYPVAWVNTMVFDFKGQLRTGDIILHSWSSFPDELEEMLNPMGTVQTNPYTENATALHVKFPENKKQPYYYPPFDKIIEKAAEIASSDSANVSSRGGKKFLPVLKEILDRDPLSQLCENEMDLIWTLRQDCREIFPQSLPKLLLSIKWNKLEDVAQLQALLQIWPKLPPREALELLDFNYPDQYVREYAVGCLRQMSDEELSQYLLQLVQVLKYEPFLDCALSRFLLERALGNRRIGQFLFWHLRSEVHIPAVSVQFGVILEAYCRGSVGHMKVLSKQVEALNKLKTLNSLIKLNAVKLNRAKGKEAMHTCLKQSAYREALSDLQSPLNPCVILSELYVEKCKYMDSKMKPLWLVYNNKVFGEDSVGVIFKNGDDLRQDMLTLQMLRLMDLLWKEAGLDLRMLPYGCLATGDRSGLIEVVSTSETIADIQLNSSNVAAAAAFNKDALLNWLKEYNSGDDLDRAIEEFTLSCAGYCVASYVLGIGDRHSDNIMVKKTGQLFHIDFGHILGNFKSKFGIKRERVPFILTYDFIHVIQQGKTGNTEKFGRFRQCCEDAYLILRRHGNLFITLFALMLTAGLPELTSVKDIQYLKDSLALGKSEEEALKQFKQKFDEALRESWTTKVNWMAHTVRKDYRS
Phosphatidylinositol 4,5-bisphosphate 3-kinase catalytic subunit alpha isoform, sequence (P42336 whole entry, canonical isoform): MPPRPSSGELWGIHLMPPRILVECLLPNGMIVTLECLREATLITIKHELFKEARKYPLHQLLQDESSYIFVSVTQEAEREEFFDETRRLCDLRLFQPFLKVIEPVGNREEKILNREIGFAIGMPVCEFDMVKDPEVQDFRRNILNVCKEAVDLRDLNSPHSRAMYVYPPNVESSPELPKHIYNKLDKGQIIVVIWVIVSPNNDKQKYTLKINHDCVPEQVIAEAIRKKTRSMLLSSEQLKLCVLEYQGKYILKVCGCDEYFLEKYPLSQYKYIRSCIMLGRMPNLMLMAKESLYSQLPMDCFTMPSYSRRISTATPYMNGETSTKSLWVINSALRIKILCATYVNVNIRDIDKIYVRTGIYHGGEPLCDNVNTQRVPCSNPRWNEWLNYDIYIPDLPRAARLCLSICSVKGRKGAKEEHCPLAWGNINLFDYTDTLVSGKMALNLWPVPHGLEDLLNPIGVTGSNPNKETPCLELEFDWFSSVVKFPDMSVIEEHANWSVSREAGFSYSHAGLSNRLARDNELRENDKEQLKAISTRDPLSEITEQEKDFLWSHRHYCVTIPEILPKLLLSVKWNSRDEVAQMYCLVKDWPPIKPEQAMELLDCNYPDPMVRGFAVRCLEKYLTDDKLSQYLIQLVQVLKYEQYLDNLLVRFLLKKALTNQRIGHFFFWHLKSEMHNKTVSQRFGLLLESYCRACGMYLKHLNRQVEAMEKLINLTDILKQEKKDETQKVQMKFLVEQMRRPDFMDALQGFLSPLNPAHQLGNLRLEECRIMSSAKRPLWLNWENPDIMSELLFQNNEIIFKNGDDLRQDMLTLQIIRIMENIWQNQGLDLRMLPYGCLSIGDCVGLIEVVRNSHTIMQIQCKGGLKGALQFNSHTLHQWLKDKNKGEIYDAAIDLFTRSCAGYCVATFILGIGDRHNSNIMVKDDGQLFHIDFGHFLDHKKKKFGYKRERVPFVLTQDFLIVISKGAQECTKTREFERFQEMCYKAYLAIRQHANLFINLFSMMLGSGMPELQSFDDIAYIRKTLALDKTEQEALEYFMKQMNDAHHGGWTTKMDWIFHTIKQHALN

SMILES	IC50 [1]	IC50 (Bel-7402 [2])	IC50 (Hep 3B2 [3])	inhibition at 10 µM (Bel-7402 [4])	inhibition at 10 µM (HepG2 [5])	inhibition at 10 µM (Hep 3B2 [6])	IC50 (HepG2 [7])	IC50 [8]	IC50 [9]	IC50 [10]
C[C@H](Nc1ncnc2[nH]cnc12)c1nn(-c2cc(F)cc(F)c2)c2cc(F)ccc12	0.423 µM	> 40 µM	> 40 µM	-8%	30%	14%	22.1 µM			
CC(C)[C@H](Nc1ncnc2[nH]cnc12)c1nn(-c2cccnc2)c2cc(F)ccc12	0.072 µM	> 40 µM	> 40 µM	5%	16%	4%	> 40 µM			
C[C@H](Nc1ncnc2[nH]cnc12)c1nn(-c2cccc(F)c2)c2cc(F)ccc12	0.485 µM	> 40 µM	> 40 µM	-17%	33%	28%	32.3 µM			
C[C@H](Nc1nc(N)nc(N)c1C#N)c1nn(-c2ccncc2)c2cc(F)ccc12	0.0057 µM	8.31 µM	11.6 µM	43%	84%	50%	7.48 µM			
C[C@H](Nc1ncnc2[nH]cnc12)c1nn(-c2cccnc2)c2ccccc12	0.038 µM	11.2 µM	36.6 µM	40%	62%	21%	20.6 µM			
Cc1ccc2c(c1)c([C@H](C)Nc1ncnc3[nH]cnc13)nn2-c1cccnc1	0.274 µM	> 40 µM	> 40 µM	-10%	18%	8%	> 40 µM			
C[C@H](Nc1ncnc2[nH]cnc12)c1nn(-c2ccncc2)c2cc(F)ccc12	0.052 µM	> 40 µM	21.4 µM	16%	47%	5%	23.1 µM			
C[C@H](Nc1nc(N)nc(N)c1C#N)c1nn(-c2cccc(S(C)(=O)=O)c2)c2cc(F)ccc12	0.0026 µM	22.1 µM	19.7 µM	14%	24%	36%	19.1 µM			
C[C@H](Nc1ncnc2[nH]cnc12)c1nn(-c2cccnc2)c2cc(Cl)ccc12	0.0077 µM	> 40 µM	> 40 µM	17%	13%	13%	> 40 µM			
C[C@H](Nc1ncnc2[nH]cnc12)c1nn(-c2ccc(C#N)cc2)c2cc(F)ccc12	0.22 µM	31.5 µM	13.5 µM	0%	57%	46%	15.1 µM			
C[C@H](Nc1nc(N)nc(N)c1C#N)c1nn(-c2cccnc2)c2ccccc12	0.004 µM	34.6 µM	26.5 µM	12%	10%	20%	32.5 µM			
C[C@H](Nc1nc(N)nc(N)c1C#N)c1nn(-c2cccc(S(C)(=O)=O)c2)c2cc(Cl)ccc12	0.0021 µM	4.46 µM	5.11 µM	47%	56%	72%	1.88 µM	> 1 µM	0.047 µM	> 1 µM
C[C@H](Nc1ncnc2[nH]cnc12)c1nn(-c2cccnc2)c2cc(F)ccc12	0.038 µM	> 40 µM	34.5 µM	8%	23%	20%	37.5 µM			
C[C@H](Nc1nc(N)nc2[nH]cnc12)c1nn(-c2cccnc2)c2cc(F)ccc12	0.039 µM	> 40 µM	> 40 µM	-5%	11%	14%	> 40 µM			
CC[C@H](Nc1nc(N)nc(N)c1C#N)c1nn(-c2cccnc2)c2cc(F)ccc12	0.0021 µM	> 40 µM	37.5 µM	29%	28%	32%	> 40 µM			
C[C@H](Nc1ncnc2[nH]cnc12)c1nn(-c2cccc(S(C)(=O)=O)c2)c2cc(F)ccc12	0.0123 µM	20 µM	13 µM	-16%	23%	11%	14.8 µM			
CC[C@H](Nc1nc(N)nc(N)c1C#N)c1nn(-c2cccnc2)c2cc(Cl)ccc12	0.0012 µM	5.59 µM	12.1 µM	56%	59%	56%	4.77 µM	0.576 µM	0.031 µM	> 1 µM
C[C@H](Nc1nc(N)nc(N)c1C#N)c1nn(-c2cccnc2)c2cc(F)ccc12	0.0037 µM	29.8 µM	23.8 µM	15%	29%	30%	23.2 µM			
C[C@H](Nc1ncnc2[nH]cnc12)c1nn(-c2cccnc2)c2ccc(F)cc12	0.101 µM	31.9 µM	40.1 µM	-22%	8%	13%	41.9 µM			
C[C@H](Nc1ncccc1C#N)c1nn(-c2cccnc2)c2cc(F)ccc12	> 10 µM	> 40 µM	> 40 µM	11%	24%	10%	> 40 µM			
CC[C@H](Nc1ncnc2[nH]cnc12)c1nn(-c2cccnc2)c2cc(F)ccc12	0.059 µM	29 µM	> 40 µM	12%	26%	4%	33.9 µM			
C[C@H](Nc1ncnc2[nH]cnc12)c1nn(-c2ccccn2)c2cc(F)ccc12	2.28 µM	> 40 µM	> 40 µM	7%	22%	12%	29.9 µM			
C[C@H](Nc1ncnc(N)c1C#N)c1nn(-c2cccnc2)c2cc(F)ccc12	0.021 µM	37.4 µM	19.2 µM	-4%	56%	30%	25.4 µM			
CC(Nc1ncnc2[nH]cnc12)c1nn(-c2cccnc2)c2ccccc12 (racemic)	0.392 µM	16.1 µM	40.3 µM	4%	13%	9%	26.2 µM			
C[C@H](Nc1nc(N)nc(N)c1C#N)c1nn(-c2cccnc2)c2cc(C(F)(F)F)ccc12	0.286 µM	3.19 µM	9.71 µM	60%	36%	69%	1.68 µM			
